Values joined by “and” are separate entries in the source; they are usually repeats but may differ in a detail not shown here. Equal entries are not always repeated. Where two headings read alike, the source gives them in different places.

This note sets out measurements from patent US20030023104A1, “Therapeutic compound - fatty acid conjugates” (COMMONWEALTH SCIENTIFIC AND INDUSTRIAL RESEARCH ORGANISATION, priority 1995, published 2003).

For data set [1], the system named is C8166 (human T-lymphoblastoid cells). The data set can be described thus: Cell growth (cytotoxicity) in C8166 cells. The format is cell-based. As for the experimental part:
(§1) The anti-HIV activities of AZT-Suc-GTP1 and AZT-Suc-GTP2 were also tested. Infected cells were incubated for 5 days with compound. Compounds were dissolved in DMSO and 5-fold dilutions were used. The following parameters were measured: syncytia formation, virus antigen gp120 production, cell survival. Cytotoxicity is also measured in uninfected cells.
(§2) C8166 (human T-lymphoblastoid cells) infected with HIV-I MN
(§3) IC50=concentration of drug which reduces cell growth by 50%.

Data set [2] relates to HIV-I U4550. The data set can be described thus: Anti HIV activity, Ag gp120 production in infected JM cells. The format is cell-based. As for the experimental part:
as §1
(§4) JM (semi mature human T-cell from lymphoblastoid leukemia) infected with HIV-I U4550
(§5) EC50=concentration which reduces Ag gp120by 50% in infected cell cultures.

The subject of data set [3] is JM (semi mature human T-cell from lymphoblastoid leukemia). In words: Cell growth (cytotoxicity) in JM cells. In kind it is cell-based. As for the experimental part:
as §1, §4, §3

Data set [4] has as its system HIV-I MN. In words: Anti HIV activity, Ag gp120 production in infected C8166 cells. In kind it is cell-based. As for the experimental part:
as §1, §2, §5

Data set [5] concerns PC3 human prostate cancer cells. The data set can be described thus: Cytotoxicity of chlorambucil and conjugates, MTS assay, PC3. The format is cell-based. As to conditions: for IC50: PC3, ethanol delivery, 72 h. As for the experimental part:
Cells were further cultured for 72 h.
(§6) Each concentration was tested in at least 3 wells.

Data set [6] has as its system human peripheral blood mononuclear cells. The data set can be described thus: Cytotoxicity of chlorambucil and conjugates, MTS assay, PBMC. The settings on record: for IC50: ethanol delivery. In kind it is cell-based. The procedure: Human peripheral blood mononuclear cells (PBMC) were isolated from one healthy donor by centrifugation on Ficoll-Paque (Pharmacia). Cells were seeded into a 96-well plates at a density of 2×10^5 cells/200 μl complete RPMI ± drug and cultured for 40 h.
as §6

For data set [7], the system named is JURKAT cells (acute T cell human leukemia). As for the experimental part:
The cytotoxicity of chlorambucil and chlorambucil fatty acid conjugates (CGTP1. P2 and P3) were tested in vitro with JURKAT cells (acute T cell human leukemia). Cells were incubated with drug and viability was determined by a colourmetric proliferation test. Cytotoxicity towards other cells lines was also tested (PC3 human prostate cancer cells, B16 mouse melanoma cells and human peripheral blood mononuclear cells).
JURKAT cells were seeded into 96-well plates at a density of 1.6×10^4 cells/200 μl complete RPMI ± drug and cultured for 64 h. A 1:3 split of confluent PC3 cells in a 75 cm^2 flask were seeded into a 96-well plate and cultured for 48 h in complete RPMI. Media was removed and complete RPMI ± drug was added to wells. Cells were further cultured for 72 h.
i) Ethanol. Drugs were dissolved in ethanol and added to culture media. The final concentration of ethanol in media was no greater than 1% (v/v). This delivery was used for experiments with JURKAT, PBMC, PC3 and B16 cell types.
ii) Coating of plates. Drugs were dissolved in ethanol and aliquots (up to 40 μl) were added to 90% (v/v) isopropanol. Solution (50 μl) was then added to wells of a 96-well plate and the solvent evaporated by heating at 37° C. Media ± cells was then added. This delivery was used for some experiments with JURKAT cells.
Viability was determined using the MTS assay (CellTiter 96TM AQueous Non-Radioactive Cell Proliferation Assay) from Promega. Reagent (40 μl) was added to each well and absorbance values at 490 nm were determined 1 to 4 h later. The effect of drug on cell viability was compared to cultures set up containing no drug (100% viability). Wells containing no cells were used to control for background absorbance (0% viability). Each concentration was tested in at least 3 wells. Concentrations necessary to cause a 50% inhibition of cellular growth of control cells (IC50) were calculated by linear regression.

For data set [8], the system named is B16 mouse melanoma cells. The data set can be described thus: Cytotoxicity of chlorambucil and conjugates, MTS assay, B16. In kind it is cell-based. As to conditions: for IC50: B16, ethanol delivery, 48 h. The procedure:
Media was removed and complete EMEM ± drug was added to wells. Cells were further cultured for 48 h.
as §6
A general note: Tetrazolium dyes change colour on reduction, which living cells bring about.

Data set [9] concerns UVB induced immunosuppression. The data set can be described thus: Contact Hypersensitivity Assay (oxazolone, net ear swelling). The format is in vivo, mice. As to conditions: 0.5% (0.5 mg/mouse) painted within 10 minutes post UVB exposure, total 3 MED UVB. From the text: The assay used the method described in “Current Protocols in Immunology” (Vol 1, Section 4.2 Eds Coligan et al. (1991) NIH). The sensitiser was Oxazalone. Briefly this method was as follows:
UVB Radiation. Mice were irradiated with a single FL40SE UVB fluorescent tube (Oliphant) in a reflective batten, providing […] UVB radiation measured at target distance using an International Light IL1700 radiometer with a UVB detector sensitive between 250-315 nm. The mice received 0.1179 J/cm^2 UVB radiation, constituting 1 minimal erythemal dose (MED) as previously ascertained, on each of 3 consecutive days, being exposed unrestrained with the wire cage tops removed.
Induction of Systemic Contact Hypersensitivity. Test mice were exposed on the dorsum to 1 MED UVB radiation (or no UVB radiation) at the same hour on days 1, 2 and 3. On days 8 and 9, the mice (irradiated and non-irradiated) were sensitized by topical application to the abdominal skin of 0.1 ml of 3% (w/v) oxazolone (Sigma Chemical Co., St Louis, Mo.) freshly prepared in ethanol. On day 15, the pre-challenge ear thickness was measured using the spring micrometer, and the mice were then challenged by the application of 5 ul freshly prepared 3% oxazolone/ethanol solution to both surfaces of each pinna. Ear thickness was again measured repeatedly between 16-24 hours, and the maximum ear thickness was recorded. The net ear swelling was calculated as the difference between the average pre-challenge and the average post-challenge ear thickness for each treatment group. Statistical significance of the differences in net ear swelling between treatment groups was assessed with Student's t test.
The mice were painted with vehicle, 0.5 mg/mouse HC, 0.5 mg/mouse HC-Suc-GTP2. 1 mg/mouse 17-b HC-Suc-GTP3 or 17-b HC within 10 minutes post UVB exposure. A total of 3 MED of unshielded UVB was used. (Table 3)

Data set [10] concerns UVB induced oedema. In words: UVB erythema assay (net skin fold thickness). The format is in vivo, Skh-1 hairless albino female mice.
In data set [11] the test system is B16 melanoma cells. The data set can be described thus: Tumour Cytotoxicity Model (B16 melanoma in C57 mice). The format is in vivo, C57 black mice. On the set-up: Mean (standard error) of B16 tumour volume adjusted for the variation in initial volume: scale not given here. As to conditions: for Mean (standard error) of B16 tumour volume adjusted for the variation in initial volume: statistically modified tumour volume; for B16 Tumour Volume: individual mice. The procedure: Groups of C57 black mice were given an initiation dose of 2×10^5 B16 melanoma cells as an intradermal injection. The cells were suspended in MEM without serum. The abdomen was clipped and 100 μl of cells + MEM was injected. […] The tumours were measured with a micrometer and photographed just prior to the injection of drug (day 8-10).
The cytotoxic drugs and their fatty acid conjugates were dissolved or suspended in 4:1 soy bean oil:ethyl oleate. A 10 mg/ml or a 20 mg/ml solution of each parent drug or the fatty acid conjugate made to the same molar concentration as the parent drug was then injected into the same region as the tumour at a dose of 0.5 mg or 1 mg. The tumours were then photographed, measured and re-injected every two to three days.

[12] abbreviates: 5 days, read-out: IC50 (concentration of drug which reduces cell growth by 50%).
[13] abbreviates: JURKAT, addition of ethanol solution to culture media.
Setting [14] is: JURKAT, coating of plates (Table 8).
Setting [15] is: JURKAT, drugs coated onto plates (Table 9).

As for `CCCCCCCCCCCCCCCC(=O)OCC(CO)(COC(=O)CCCCCCCCCCCCCCC)NC(=O)CNC(=O)CCC(=O)OC[C@H]1O[C@@H](n2cc(C)c(=O)[nH]c2=O)C[C@@H]1N=[N+]=[N-]` [AZT-Suc-GTP2], the “fold more cytotoxic than AZT” value in data set [1] and in [3] was 25 each time. In addition, the IC50 in data set [1] (setting [12]) and in data set [3] (setting [12]) was 200 µM in each case. For the same molecule, the “Ratio of AZT: Conjugate EC50” value is “approx. 0.5” in data set [2] (JM cell line) and 0.5 in data set [4] (C8166 cell line). In addition, the EC50 was more than 200 µM in [2] (JM cells infected with HIV-I U4550, 5 days, read-out: EC50 (concentration which reduces Ag gp120 by 50% in infected cell cultures)) and 0.032 µM in data set [4] (C8166 cells infected with HIV-I MN, 5 days, read-out: EC50 (concentration which reduces Ag gp120 by 50% in infected cell cultures)).

As for `CCCCCCCCCCCCCCCC(=O)OCC(CO)(CO)NC(=O)CNC(=O)CCCc1ccc(N(CCCl)CCCl)cc1` [CGTP1, Chlorambucil-Gly-Tris-Monopalmitate], the “Clorambucil to CGTP1 Ratio (IC50)” value is 15.0 in data set [5] (PC3); 6.3 in [6] (PBMC (1)); “approx. 4” in [6] (PBMC (3)); 15 and 15.5 in data set [7] (JURKAT); 1.6 in [8] (B16). In addition, the IC50 in data set [5] is 10.7 µM; in data set [6] (PBMC (1) = one donor, 40 h) it was 7.1 µM; in data set [6] (PBMC (3) = three donors) it was 5.5 µM; in [7] (setting [13]) it was 6.5 µM; in data set [7] (setting [14]), 8.6 µM; in data set [7] (setting [15]) it was 8.4 µM. Further, the IC50 came to 6.5 µM in data set [7] (JURKAT, ethanol delivery, 64 h) and 23.1 µM in data set [8]. Besides, the “fold increase in toxicity to normal cells (PBMC) versus chlorambucil” value in data set [6] (PBMC) is recorded as “approximately 5”. In addition, the “cytotoxicity to JURKAT cells (in words)” value in data set [7] (comparison of conjugate, equimolar mixture and GTP1 alone) was “more cytotoxic to JURKAT cells than an equimolar mixture of chlorambucil and GTP1”.

On to `C[C@]12CCC(=O)C=C1CC[C@@H]1[C@@H]2[C@@H](O)C[C@@]2(C)[C@H]1CC[C@]2(O)C(=O)CO` [Hydrocortisone, hydrocortisone (cortisol or 17 hydroxy corticosterone), reference compound], for which the “Net Ear Swelling” value in data set [9] is 32.0 10^−2 mm. The “protection from erythema and oedema” value in data set [10] (0.5 mg/mouse topical in ethanol after 2 MED UVB, 24 h) was approximately 100%. The “Mean Net Skin Fold Thickness” value is 102.7 ± 12.1 10^−2 mm in data set [10] (0.5 mg/mouse topical in ethanol, applied Day −5 (5 days prior to UV exposure), 2MED UVB, measured 24 h); 10.4 ± 8.19 10^−2 mm in [10] (0.5 mg/mouse topical, applied Day 0 after UV exposure, 2MED UVB); 100.9 ± 7.3 10^−2 mm in [10] (0.5 mg/mouse topical, applied Day −3 (3 days prior to UV exposure), 2MED UVB); 7.9 ± 4.4 in [10] (1 mg/mouse (1% w/v) topical, applied Day 0 after UV exposure); 62.9 ± 4.0 in [10] (1 mg/mouse (1% w/v) topical, applied Day −3); 108.3 ± 5.1 in data set [10] (1 mg/mouse (1% w/v) topical, applied Day −5).

With Chlorambucil [reference compound], in data set [11] (0.5 mg and 1.0 mg groups), the “difference in tumour volume from the Vehicle group (95% level)” value is “significant difference”. The “Mean (standard error) of B16 tumour volume adjusted for the variation in initial volume” value in data set [11] (13/11/95, 0.5 mg) was 3.01 (0.610); in [11] (15/11/95, 0.5 mg), 3.29 (0.955); in data set [11] (16/11/95, 0.5 mg), 3.46 (1.15); in data set [11] (17/11/95, 0.5 mg) it was 3.65 (1.38). In data set [11] (C57 mice, repeated injection every two to three days), the “toxicity observed in test group” value was “High toxicity”. The “B16 Tumour Volume” value is 0.5 mm^2 and 1.6 mm^2 and 8.2 mm^2 and 16.6 mm^2 in data set [11] (Day 1, drug dose 0.5 mg injected at tumour region); 0.5 mm^2 and 0 mm^2 and 21.8 mm^2 and 38.3 mm^2 in data set [11] (Day 3, drug dose 0.5 mg); 0 mm^2 (2×) and 7.7 mm^2 and 108.4 mm^2 in data set [11] (Day 5, drug dose 0.5 mg); 0 mm^2 (2×) and 7.7 mm^2 and 125.1 mm^2 in data set [11] (Day 6, drug dose 0.5 mg); 0 mm^2 (2×) and 5.9 mm^2 and 174.1 mm^2 in [11] (Day 7, drug dose 0.5 mg). Also, the mice died in data set [11] (chlorambucil test group) is recorded as 3 out of 7. Also, the IC50 in [5] is 160 µM; in data set [6] (PBMC (1) = one donor, 40 h), 45 µM; in data set [6] (PBMC (3) = three donors) it was less than 22 µM; in data set [7] (setting [13]), 101 µM; in data set [7] (setting [14]), 219 µM; in [7] (setting [15]), 219 µM. In addition, the IC50 in data set [7] (JURKAT, ethanol delivery, 64 h) came out at 101 µM; in data set [8], 36.5 µM.
